According to patent publication US20250092044A1, “Kinase Inhibitors” (Incyte Corporation, priority 2023, published 2025):

Tests used:
TRKA [1] = molecular target: TRKA (Homo sapiens (Human), UniProt P04629); test: TRKA Enzymatic Assay; assay type: biochemical; details: 1 mM ATP
Description: (§1) The kinase assays were carried out at 24° C. temperature in assay buffer (HEPES 50 mM, pH 7.0, NaN3 0.02%, BSA 0.01%, Orthovanadate 0.1 mM, DTT 1 mM, MgCl2 10 mM) in a final volume of 10 μL. Testing compounds were prepared by serial dilution in DMSO and transferred to the plate wells by ECHO liquid handler (Labcyte) with 0.5% DMSO in the final assay. […]. Reactions were initiated by the addition of 5 μL ATP in assay buffer. The final 10 μL kinase reaction consisted of 0.58 nM TRKA, 1 mM ATP, 500 nM TK Substrate-biotin and SEB reagent 62.5 nM in assay buffer. […] After 60 minutes incubation at room temperature, the product activity was determined by measuring the fluorescence at 620 nm and 665 nm on Pherastar microplate reader (BMG Labtech). A ratio was calculated (665/620 nm) for each well. Wells with DMSO only served as the positive controls and wells containing no ATP were used as negative controls. IC50 determination was performed by fitting the curve of percent control activity versus the log of the compound concentration using the Gene data.

TRKA [2] = test: TRKA Enzymatic Assay; assay type: biochemical
Description: as §1

FLT3 [3] = test: FLT3 Enzymatic Assay; assay type: biochemical
Description: (§2) The kinase assays were carried out at room temperature in assay buffer (HEPES 50 mM, pH 7.0, NaN3 0.02%, BSA 0.01%, Orthovanadate 0.1 mM, DTT 1 mM, MgCl2 10 mM) in a final volume of 10 μL. Testing compounds were prepared by serial dilution in DMSO and transferred to the plate wells by ECHO liquid handler (Labcyte) with 0.5% DMSO in the final assay. […]. Reactions were initiated by the addition of 5 μL ATP in assay buffer. The final 10 μL kinase reaction consists of 0.011 nM FLT3, 1 mM ATP, 500 nM TK Substrate-biotin and SEB reagent 62.5 nM in assay buffer. […] The plates were then sealed and centrifuged at 1800 rpm for 2 minutes. After 60 minutes incubation at room temperature, the product activity was determined by measuring the fluorescence at 620 nm and 665 nm on Pherastar microplate reader (BMG Labtech). A ratio is calculated (665/620 nm) for each well. Wells with DMSO only were served as the positive controls and wells containing no ATP were used as negative controls. IC50 determination was performed by fitting the curve of percent control activity versus the log of the compound concentration using the GraphPad Prism 7.0 software.

FLT3 [4] = molecular target: FLT3 (Homo sapiens (Human), UniProt P36888); test: FLT3 Enzymatic Assay; assay type: biochemical; details: 1 mM ATP
FLT3 (Homo sapiens (Human), UniProt P36888), sequence (P36888 27-993, species assumed): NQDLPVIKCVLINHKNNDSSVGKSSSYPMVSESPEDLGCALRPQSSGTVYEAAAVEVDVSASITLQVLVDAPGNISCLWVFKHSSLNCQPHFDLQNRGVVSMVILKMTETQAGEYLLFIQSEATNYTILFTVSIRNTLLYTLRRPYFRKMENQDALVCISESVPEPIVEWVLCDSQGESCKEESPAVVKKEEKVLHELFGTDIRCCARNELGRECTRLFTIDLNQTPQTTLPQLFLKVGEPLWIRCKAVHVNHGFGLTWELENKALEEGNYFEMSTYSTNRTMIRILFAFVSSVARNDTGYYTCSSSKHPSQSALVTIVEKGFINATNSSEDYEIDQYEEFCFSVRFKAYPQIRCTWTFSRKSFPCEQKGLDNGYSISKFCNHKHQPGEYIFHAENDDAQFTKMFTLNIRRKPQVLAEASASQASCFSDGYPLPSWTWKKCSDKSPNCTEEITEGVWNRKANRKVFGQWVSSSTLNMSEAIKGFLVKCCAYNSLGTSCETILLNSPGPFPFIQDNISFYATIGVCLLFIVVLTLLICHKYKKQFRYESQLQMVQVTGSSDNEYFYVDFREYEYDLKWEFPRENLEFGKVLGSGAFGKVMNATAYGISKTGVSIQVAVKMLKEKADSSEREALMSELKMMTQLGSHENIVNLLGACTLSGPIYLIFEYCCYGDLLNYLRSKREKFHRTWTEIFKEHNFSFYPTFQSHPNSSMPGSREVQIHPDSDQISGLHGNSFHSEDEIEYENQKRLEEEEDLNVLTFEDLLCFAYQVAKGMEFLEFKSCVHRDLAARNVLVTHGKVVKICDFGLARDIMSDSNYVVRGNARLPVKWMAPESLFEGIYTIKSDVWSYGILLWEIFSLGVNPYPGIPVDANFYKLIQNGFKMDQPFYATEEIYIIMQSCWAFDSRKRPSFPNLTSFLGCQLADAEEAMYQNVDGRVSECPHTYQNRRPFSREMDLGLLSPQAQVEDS
Description: as §2

[5] = system: STAT5 (Tyr694) phosphorylation in SET-2 cells; test: STAT5 (Tyr694) Phosphorylation Cell Based Assay; details: Homo sapiens, 2 hours, read-out: SET2 IC50
Description: SET-2 cells was purchased from DSMZ (Germany). RPMI1640 medium, Fetal Bovine Serum and 384-white sold flat-bottom small volume plate were purchased from Thermo Fisher Scientific (Waltham, MA). Phospho-STAT5 (Tyr694) HTRF kit was purchased from Perkin Elmer (Waltham, MA).
SET-2 cells were cultured in RPMI media with 20% FBS at 37° C. in humidified incubator supplied with 5% CO2. On the day of assay, the cells were centrifuged to remove the culture media and resuspended with prewarmed RPMI with 10% FBS. Testing compounds were prepared by serial dilution in DMSO and 50 nL/well test compounds were transferred to the 384 white low volume cell culture plate (Greiner Bio-one) by ECHO liquid handler (Labcyte). The cells were then dispensed with Multidrop (Thermo Fisher, Waltham, MA) at 10 μL/well (7×10^6 cells/mL) with 0.5% DMSO in the final assay. After the treated cells were incubated for 2 hours at 37° C./5% CO2 incubator, 4 μL/well supplemented lysis buffer (100× blocking buffer diluted 25 fold in 4× lysis buffer, Perkin Elmer) were added and incubated at room temperature for 90 min on orbital shaker at 600 rpm. Phospho-STAT5 Cryptate antibody and Phospho-STAT5 d2 antibody (1:1 vol/vol) were premixed and diluted 20 fold with in the detection buffer (Perkin Elmer). 4 μL of the premixed antibody solution were added to each well followed with 24 hours incubation at room temperature on orbital shaker at 600 rpm. The product activity was determined by measuring the fluorescence at 620 nm and 665 nm on Pherastar microplate reader (BMG Labtech). A ratio is calculated (665/620) for each well. Wells with DMSO only served as the positive controls and wells containing high concentration of control compound were used as negative controls. IC50 determination was performed by fitting the curve of percent control activity versus the log of the compound concentration using the GraphPad Prism 7.0 software.

[6] = molecular target: pseudo-kinase domain (JH2) of human V617F mutant JAK2 (Homo sapiens (Human), UniProt O60674, F794H/V617F/W659A/W777A); test: JAK2 LanthaScreen JH2-V617F Binding Assay; details: read-out: JH2 V617F Bind IC50
pseudo-kinase domain (JH2) of human V617F mutant JAK2, sequence (O60674 536-812 V617F/W659A/W777A/F794H): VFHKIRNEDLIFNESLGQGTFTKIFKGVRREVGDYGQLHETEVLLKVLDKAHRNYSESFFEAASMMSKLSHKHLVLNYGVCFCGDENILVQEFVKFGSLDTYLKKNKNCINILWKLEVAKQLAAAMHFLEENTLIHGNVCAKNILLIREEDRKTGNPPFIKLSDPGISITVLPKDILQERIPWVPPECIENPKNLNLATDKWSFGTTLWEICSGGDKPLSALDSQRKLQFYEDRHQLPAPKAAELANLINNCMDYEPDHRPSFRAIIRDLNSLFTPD
Description: JAK2 JH2-V617F binding assay utilizes pseudo-kinase domain (JH2, amino-acids 536-812 with 3 surface mutations W659A, W777A, F794H) of human V617F mutant JAK2 expressed as C-terminal His-Avi-tagged, biotinylated protein in a baculovirus expression system (BPS Bioscience, Catalog #79498). The assay was conducted in black 384-well polystyrene plates in a final reaction volume of 20 μL. JAK2 JH2-V617F (0.26 nM) was incubated with compounds (100 nL serially diluted in DMSO) in the presence of 50 nM Fluorescent JAK2-JH2 Tracer (MedChem Express Catalog #HY-102055) and 0.25 nM Streptavidin-Tb cryptate (Cisbio Part #610SATLB) in assay buffer (50 mM Tris, pH=7.5, 10 mM MgCl2, 0.01% Brij-35, 0.1% BSA, 1 mM EGTA, 5% Glycerol and 5 mM DTT). Non-specific binding was accessed in the presence of 2 mM ATP. After incubation for 1 hour at 25° C., LanthaScreen signals were read on a PHERAstar FS plate reader (BMG LABTECH). Data was analyzed with IDBS XLfit and GraphPad Prism 5.0 software using a four parameter dose response curve to determine IC50 for each compound.

[7] = molecular target: catalytic domain (JH1) of human JAK2 (Homo sapiens (Human), UniProt O60674); test: JAK2 LanthaScreen JH1 Binding Assay; details: read-out: JH1 Bind IC50
catalytic domain (JH1) of human JAK2, sequence (O60674 826-1132): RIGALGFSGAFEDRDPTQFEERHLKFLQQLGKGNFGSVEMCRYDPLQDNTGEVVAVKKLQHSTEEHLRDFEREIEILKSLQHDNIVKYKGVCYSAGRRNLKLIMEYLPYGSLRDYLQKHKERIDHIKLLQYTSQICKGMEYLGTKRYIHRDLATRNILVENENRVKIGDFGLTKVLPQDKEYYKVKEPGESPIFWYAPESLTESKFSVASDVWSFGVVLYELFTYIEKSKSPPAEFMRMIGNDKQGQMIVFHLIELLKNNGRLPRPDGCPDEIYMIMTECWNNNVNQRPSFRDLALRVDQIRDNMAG
Description: JAK2 JH1 binding assay utilizes catalytic domain (JH1, amino acids 826-1132) of human JAK2 expressed as N-terminal FLAG-tagged, biotinylated protein in a baculovirus expression system (Carna Biosciences, Product #08-445-20N). The assay was conducted in black 384-well polystyrene plates in a final reaction volume of 20 μL. JAK2 JH1 (1.5 nM) was incubated with compounds (100 nL serially diluted in DMSO) in the presence of 50 nM fluorescent JAK2-JH1 tracer and 0.5 nM Streptavidin-Tb cryptate (Cisbio Part #610SATLB) in assay buffer (50 mM Tris, pH=7.5, 10 mM MgCl2, 0.01% Brij-35, 0.1% BSA, 1 mM EGTA, 5% Glycerol and 5 mM DTT). Non-specific binding was accessed in the presence of 2 mM ATP. After incubation for 2 hours at 25° C., LanthaScreen signals were read on a PHERAstar FS plate reader (BMG LABTECH). Data was analyzed with IDBS XLfit and GraphPad Prism 5.0 software using a four parameter dose response curve to determine IC50 for each compound.

TRKA (Homo sapiens (Human), UniProt P04629), sequence (P04629 33-796, species assumed): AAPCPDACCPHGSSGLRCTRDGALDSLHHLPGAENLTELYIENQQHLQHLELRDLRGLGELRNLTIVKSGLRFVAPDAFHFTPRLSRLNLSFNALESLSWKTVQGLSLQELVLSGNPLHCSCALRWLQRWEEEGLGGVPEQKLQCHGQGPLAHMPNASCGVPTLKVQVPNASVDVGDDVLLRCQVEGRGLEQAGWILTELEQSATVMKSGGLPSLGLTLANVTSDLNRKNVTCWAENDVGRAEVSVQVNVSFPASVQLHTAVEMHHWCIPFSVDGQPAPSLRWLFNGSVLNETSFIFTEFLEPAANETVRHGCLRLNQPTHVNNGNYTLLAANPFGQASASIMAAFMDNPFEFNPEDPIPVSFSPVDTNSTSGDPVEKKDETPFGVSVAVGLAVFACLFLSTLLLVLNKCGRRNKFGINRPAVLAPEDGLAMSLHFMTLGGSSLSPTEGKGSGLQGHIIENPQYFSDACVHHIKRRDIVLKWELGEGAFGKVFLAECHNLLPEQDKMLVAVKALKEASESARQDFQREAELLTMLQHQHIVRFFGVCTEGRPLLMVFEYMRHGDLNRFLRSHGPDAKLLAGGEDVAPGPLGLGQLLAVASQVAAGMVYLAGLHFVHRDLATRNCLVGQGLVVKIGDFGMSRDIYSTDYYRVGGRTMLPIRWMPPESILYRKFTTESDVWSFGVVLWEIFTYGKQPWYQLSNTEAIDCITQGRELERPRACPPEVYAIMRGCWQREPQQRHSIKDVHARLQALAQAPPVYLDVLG

| SMILES | IC50 (TRKA [1]) [nM] | Selectivity TRKA/JH2 V617F (TRKA [2]) | Selectivity FLT3/JH2 V617F (FLT3 [3]) | IC50 (FLT3 [4]) [nM] | IC50 [5] [nM] | IC50 [6] [nM] | IC50 [7] [nM] |
| --- | --- | --- | --- | --- | --- | --- | --- |
| COC(=O)N[C@@H]1CC[C@@H](n2c(=O)n(C)c3cnc4[nH]c(-c5ccc(C(=O)NCCCNc6ccccc6)c(F)c5)c(-c5ccc6c(cnn6C(C)C)c5)c4c32)C1 [Example 7, Methyl ((1R,3R)-3-(7-(3-fluoro-4-((3-(phenylamino)propyl)carbamoyl)phenyl)-8-(1-isopropyl-1H-indazol-5-yl)-3-methyl-2-oxo-3,6-dihydroimidazo[4,5-d]pyrrolo[2,3-b]pyridin-1(2H)-yl)cyclopentyl)carbamate] | > 2500 | ***** (selectivity of >5000-fold to ≤12500-fold) | ***** (selectivity of >5000-fold to ≤12500-fold) | > 2500 | > 800 | ≤ 10 | > 1000 |
| Cn1cc(-c2[nH]c3ncc4c(c3c2-c2ccc3c(cnn3C)c2)n([C@H]2CC[C@@H](CC#N)CC2)c(=O)n4C)cn1 [Comparative Example C, reference compound] | < 25 | * (selectivity of ≤500-fold) | * (selectivity of ≤500-fold) | < 25 |  | ≤ 10 |  |
| Cn1c(=O)n(C2CCCC2)c2c3c(-c4ccccc4)c(-c4ccc(CN5CCC(S(C)(=O)=O)CC5)cc4)[nH]c3ncc21 [Comparative Example H, reference compound] | 25 to 250 | * (selectivity of ≤500-fold) | * (selectivity of ≤500-fold) | 25 to 250 | 300 to 800 | ≤ 10 |  |
| COCCNC(=O)c1ccc(-c2[nH]c3ncc4c(c3c2-c2ccc3c(cnn3C(C)C)c2)n([C@@H]2CC[C@@H](NC(=O)OC)C2)c(=O)n4C)cc1 [Example 19, Methyl ((1R,3R)-3-(8-(1-isopropyl-1H-indazol-5-yl)-7-(4-((2-methoxyethyl)carbamoyl)phenyl)-3-methyl-2-oxo-3,6-dihydroimidazo[4,5-d]pyrrolo[2,3-b]pyridin-1(2H)-yl)cyclopentyl)carbamate] | 1250 to 2500 | ****** (selectivity of >12500-fold) | **** (selectivity of >1750-fold to ≤5000-fold) | 250 to 1250 | ≤ 300 | ≤ 10 | > 1000 |
| COC(=O)N[C@@H]1CC[C@@H](n2c(=O)n(C)c3cnc4[nH]c(-c5ccc(C(=O)N(C)C)cc5)c(-c5ccc6c(cnn6C(C)C)c5)c4c32)C1 [Example 22, Methyl ((1R,3R)-3-(7-(4-(dimethylcarbamoyl)phenyl)-8-(1-isopropyl-1H-indazol-5-yl)-3-methyl-2-oxo-3,6-dihydroimidazo[4,5-d]pyrrolo[2,3-b]pyridin-1(2H)-yl)cyclopentyl)carbamate] | 250 to 1250 | ***** (selectivity of >5000-fold to ≤12500-fold) | ***** (selectivity of >5000-fold to ≤12500-fold) | 250 to 1250 | ≤ 300 | ≤ 10 | > 1000 |
| Cn1ncc2cc(-c3c(-c4ccc(CN5CCC(S(C)(=O)=O)CC5)cc4)[nH]c4ncc5c(c34)n(C3CCCC3)c(=O)n5C)ccc21 [Comparative Example I, reference compound] | < 25 | * (selectivity of ≤500-fold) | * (selectivity of ≤500-fold) | < 25 | 300 to 800 | ≤ 10 |  |
| COC(=O)N[C@@H]1CC[C@@H](n2c(=O)n(C)c3cnc4[nH]c(-c5ccc(C(=O)N6CCOCC6)cc5)c(-c5ccc6c(cnn6C(C)C)c5)c4c32)C1 [Example 20, Methyl ((1R,3R)-3-(8-(1-isopropyl-1H-indazol-5-yl)-3-methyl-7-(4-(morpholine-4-carbonyl)phenyl)-2-oxo-3,6-dihydroimidazo[4,5-d]pyrrolo[2,3-b]pyridin-1(2H)-yl)cyclopentyl)carbamate] | 250 to 1250 | ***** (selectivity of >5000-fold to ≤12500-fold) | ***** (selectivity of >5000-fold to ≤12500-fold) | 250 to 1250 | ≤ 300 | ≤ 10 | > 1000 |
| COC(=O)N[C@@H]1CC[C@@H](n2c(=O)n(C)c3cnc4[nH]c(-c5ccc(C(=O)N6C7CCC6COC7)c(OC)c5)c(-c5cccc(F)c5)c4c32)C1 [Example 5, Methyl ((1R,3R)-3-(7-(4-(3-oxa-8-azabicyclo[3.2.1]octane-8-carbonyl)-3-methoxyphenyl)-8-(3-fluorophenyl)-3-methyl-2-oxo-3,6-dihydroimidazo[4,5-d]pyrrolo[2,3-b]pyridin-1(2H)-yl)cyclopentyl)carbamate] | 250 to 1250 | ** (selectivity of >500-fold to ≤1500-fold) | ***** (selectivity of >5000-fold to ≤12500-fold) | 1250 to 2500 | > 800 | ≤ 10 | > 1000 |
